Active and inactive are the calls of the source. No cut-off for these calls is given here.
Key:
[1] = biological target: T1, Alpha-1D adrenergic receptor (Homo sapiens, UniProt P25100); assay: Antagonist activity at adrenergic Alpha-1D receptor expressed in HEK293 cells co-transfected with Galpha16 assessed as inhibition of adrenaline-induced intracellular calcium after 3 to 5 mins by Fluo-4/AM assay; type: functional, cell-based
T1 sequence (P25100 whole entry): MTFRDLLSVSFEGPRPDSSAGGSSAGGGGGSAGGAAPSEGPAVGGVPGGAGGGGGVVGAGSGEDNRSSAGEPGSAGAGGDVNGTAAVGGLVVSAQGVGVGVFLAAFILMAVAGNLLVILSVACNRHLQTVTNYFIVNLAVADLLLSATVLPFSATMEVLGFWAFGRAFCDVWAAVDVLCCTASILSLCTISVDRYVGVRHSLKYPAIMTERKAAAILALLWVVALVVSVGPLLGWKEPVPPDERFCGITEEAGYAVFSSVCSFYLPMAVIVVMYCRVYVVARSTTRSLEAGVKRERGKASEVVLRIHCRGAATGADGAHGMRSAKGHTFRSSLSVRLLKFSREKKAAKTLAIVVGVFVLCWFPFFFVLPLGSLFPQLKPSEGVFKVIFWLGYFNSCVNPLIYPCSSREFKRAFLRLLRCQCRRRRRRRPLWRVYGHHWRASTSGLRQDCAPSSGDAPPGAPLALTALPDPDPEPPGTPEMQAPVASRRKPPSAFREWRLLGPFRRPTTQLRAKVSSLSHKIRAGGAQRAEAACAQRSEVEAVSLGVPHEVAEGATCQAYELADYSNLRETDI

[2] = biological target: T2, 5-hydroxytryptamine receptor 1A (Rattus norvegicus) (UniProt P19327); assay: Decrease of 5HT1A receptor-mediated excitatory postsynaptic current amplitude in Sprague-Dawley rat median prefrontal cortex at 10 uM by whole-cell voltage clamp assay in presence of 10 uM of 5HT1A receptor antagonist WAY-100635; type: functional, tissue-based; parameters: scale not given: the % may be the effect or the level left
T2 sequence (whole entry): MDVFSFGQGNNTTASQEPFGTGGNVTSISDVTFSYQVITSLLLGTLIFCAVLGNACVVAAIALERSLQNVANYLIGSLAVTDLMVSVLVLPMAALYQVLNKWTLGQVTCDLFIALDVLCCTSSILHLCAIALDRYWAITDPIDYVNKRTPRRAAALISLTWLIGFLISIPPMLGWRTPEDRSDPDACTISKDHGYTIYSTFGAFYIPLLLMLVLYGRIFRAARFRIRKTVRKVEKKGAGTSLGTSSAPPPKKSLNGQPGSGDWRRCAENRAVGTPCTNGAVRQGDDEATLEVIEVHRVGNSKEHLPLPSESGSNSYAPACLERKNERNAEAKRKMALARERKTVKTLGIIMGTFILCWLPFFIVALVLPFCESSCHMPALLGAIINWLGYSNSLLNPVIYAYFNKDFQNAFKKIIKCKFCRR

[3] = biological target: T3, 5-hydroxytryptamine receptor 1A (Homo sapiens, UniProt P08908); assay: Displacement of [3H]-8-OH-DPAT from 5-HT1A receptor expressed in CHO cells after 50 mins by beta liquid scintillation counter; type: cell-based
T3 sequence (P08908 whole entry): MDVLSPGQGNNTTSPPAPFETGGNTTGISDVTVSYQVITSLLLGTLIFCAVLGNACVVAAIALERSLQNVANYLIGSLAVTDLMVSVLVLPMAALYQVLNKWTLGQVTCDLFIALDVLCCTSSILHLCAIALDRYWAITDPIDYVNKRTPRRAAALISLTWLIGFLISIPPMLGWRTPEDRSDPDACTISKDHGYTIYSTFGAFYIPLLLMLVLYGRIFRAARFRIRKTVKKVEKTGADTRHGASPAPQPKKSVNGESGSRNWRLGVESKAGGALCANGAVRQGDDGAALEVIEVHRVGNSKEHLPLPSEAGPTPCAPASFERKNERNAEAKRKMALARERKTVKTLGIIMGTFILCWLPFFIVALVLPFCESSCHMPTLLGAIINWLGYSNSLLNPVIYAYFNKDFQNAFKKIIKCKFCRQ

[4] = biological target: T3, 5-hydroxytryptamine receptor 1A; assay: Agonist activity at 5-HT1A receptor expressed in CHO cells assessed as stimulation of [35S]GTPgammaS binding after 30 mins; type: functional, cell-based
[5] = biological target: T4, Alpha-1B adrenergic receptor (Homo sapiens, UniProt P35368); assay: Antagonist activity at adrenergic Alpha-1B receptor expressed in CHO cells assessed as inhibition of adrenaline-induced intracellular calcium after 3 to 5 mins by Fluo-4/AM assay; type: functional, cell-based
T4 sequence (P35368 whole entry): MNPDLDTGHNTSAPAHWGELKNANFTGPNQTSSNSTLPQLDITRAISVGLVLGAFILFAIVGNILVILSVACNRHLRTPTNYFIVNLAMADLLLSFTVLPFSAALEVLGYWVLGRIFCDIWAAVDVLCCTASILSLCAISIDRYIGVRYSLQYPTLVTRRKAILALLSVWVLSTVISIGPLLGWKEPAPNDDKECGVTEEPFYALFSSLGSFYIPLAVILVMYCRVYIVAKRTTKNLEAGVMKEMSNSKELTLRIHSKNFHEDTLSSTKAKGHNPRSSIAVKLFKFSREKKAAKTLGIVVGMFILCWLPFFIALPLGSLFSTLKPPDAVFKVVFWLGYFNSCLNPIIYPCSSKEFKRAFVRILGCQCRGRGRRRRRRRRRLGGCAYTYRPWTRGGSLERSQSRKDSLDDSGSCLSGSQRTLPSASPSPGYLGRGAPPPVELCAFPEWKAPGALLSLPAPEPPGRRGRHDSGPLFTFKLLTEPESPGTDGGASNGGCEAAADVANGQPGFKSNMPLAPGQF

Rattus norvegicus [6] = assay: Antiparkinsonian effect in 6-hydroxydopamine lesioned Sprague-Dawley rat Parkinson's disease model assessed as inhibition of L-DOPA-enhanced FosB expression in striatum at 1.5 mg/kg administered qd for 21 days by Western blot analysis; type: functional, organism-based; parameters: dose 1.5 mg/kg
[7] = biological target: 5-hydroxytryptamine receptor 2A (Homo sapiens, UniProt P28223); assay: Displacement of [3H]ketanserin from 5-HT2A receptor expressed in CHO cells at 10 uM after 50 mins by beta liquid scintillation counter; type: cell-based
Sequence of 5-hydroxytryptamine receptor 2A (P28223 whole entry): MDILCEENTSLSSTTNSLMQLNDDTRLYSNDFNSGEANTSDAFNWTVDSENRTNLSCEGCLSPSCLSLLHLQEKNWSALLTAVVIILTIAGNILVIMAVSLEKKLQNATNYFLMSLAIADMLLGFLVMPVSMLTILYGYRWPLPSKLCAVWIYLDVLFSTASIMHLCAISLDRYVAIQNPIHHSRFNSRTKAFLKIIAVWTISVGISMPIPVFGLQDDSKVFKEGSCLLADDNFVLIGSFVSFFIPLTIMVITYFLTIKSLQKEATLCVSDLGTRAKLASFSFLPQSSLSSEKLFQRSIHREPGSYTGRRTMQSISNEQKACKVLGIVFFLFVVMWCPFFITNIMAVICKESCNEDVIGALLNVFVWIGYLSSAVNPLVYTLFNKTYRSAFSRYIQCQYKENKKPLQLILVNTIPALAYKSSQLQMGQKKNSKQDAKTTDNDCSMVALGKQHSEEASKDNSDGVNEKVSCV

Rattus norvegicus [8] = assay: Antiparkinsonian activity in 6-hydroxydopamine lesioned Sprague-Dawley rat assessed as contralateral rotations at 0.5 to 1.5 mg/kg, ip measured every 5 mins for 6 hrs; type: functional, organism-based
Rattus norvegicus [9] = assay: Antiparkinsonian activity in 6-hydroxydopamine lesioned Sprague-Dawley rat assessed as contralateral rotations at 1.5 mg/kg, ip measured every 5 mins for 6 hrs pretreated with 5-HT1A receptor antagonist 0.1 mg/kg of WAY-100635 for 10 mins before compound challenge; type: functional, organism-based
[10] = biological target: Beta-2 adrenergic receptor (Homo sapiens, UniProt P07550); assay: Antagonist activity at adrenergic beta2 receptor expressed in HEK293 cells co-transfected with Galpha16 assessed as inhibition of adrenaline-induced intracellular calcium after 3 to 5 mins by Fluo-4/AM assay; type: functional, cell-based
Sequence of Beta-2 adrenergic receptor (P07550 whole entry): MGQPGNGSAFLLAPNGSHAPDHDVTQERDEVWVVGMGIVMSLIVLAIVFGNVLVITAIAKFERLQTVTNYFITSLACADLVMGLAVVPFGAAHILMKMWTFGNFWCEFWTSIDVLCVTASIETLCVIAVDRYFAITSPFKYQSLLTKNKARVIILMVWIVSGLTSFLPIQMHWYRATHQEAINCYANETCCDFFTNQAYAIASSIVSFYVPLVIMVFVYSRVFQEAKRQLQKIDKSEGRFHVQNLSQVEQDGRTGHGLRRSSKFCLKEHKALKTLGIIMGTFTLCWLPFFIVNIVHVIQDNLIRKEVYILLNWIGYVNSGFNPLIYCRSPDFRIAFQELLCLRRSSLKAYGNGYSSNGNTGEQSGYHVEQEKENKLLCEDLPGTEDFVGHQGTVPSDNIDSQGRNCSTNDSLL

[11] = biological target: T2, 5-hydroxytryptamine receptor 1A (Rattus norvegicus); assay: Effect on 5HT1A receptor-mediated pair pulse ratio in Sprague-Dawley rat median prefrontal cortex at 10 uM by whole-cell voltage clamp assay; type: tissue-based
Rattus norvegicus [12] = assay: Antiparkinsonian activity in 6-hydroxydopamine lesioned Sprague-Dawley rat assessed as contralateral rotations at 1.5 mg/kg, ip measured every 5 mins for 6 hrs pretreated with D2 receptor antagonist 2 mg/kg of spiperone for 15 mins before compound challenge; type: functional, organism-based

CCCN1CCc2cccc3c2[C@H]1Cc1cccc(OC(=O)CCCCC2CCSS2)c1-3 (some centres not stated)
IC50 [1]: > 10000 nM
Activity [2]: 99.4%
Ki [3]: 66 nM
EC50 [4]: 190 nM
IC50 [5]: > 10000 nM
Activity (Rattus norvegicus [6]): Active
inhibition [7]: 48%
Activity (Rattus norvegicus [8]): Active
Activity (Rattus norvegicus [9]): Active
IC50 [10]: > 10000 nM
Activity [11]: 114%
Activity (Rattus norvegicus [12]): inactive

Source: ChEMBL document CHEMBL1806354 (J Med Chem, 2011)
